According to ChEMBL document CHEMBL3352162, “Synthesis of bi-/tricyclic azasugars fused thiazinan-4-one and their HIV-RT inhibitory activity” (Bioorg Med Chem Lett, 2014):

Target: Human immunodeficiency virus type 1 reverse transcriptase (Human immunodeficiency virus 1, UniProt Q72547)
Test: Inhibition of HIV-1 reverse transcriptase after 1 hr by ELISA plate reader analysis

SMILES | IC50 [µM]
O=C1c2ccccc2S[C@H]2[C@@H](O)[C@@H](O)[C@H](O)CN12 | 1.58
O=C1c2ccccc2S[C@@H]2[C@@H](O)[C@@H](O)[C@H](O)CN12 | 3.83
O=C1CCS[C@H]2[C@@H](O)[C@@H](O)[C@H](O)[C@H](CO)N12 | 12.9
O=C1c2ccccc2S[C@H]2[C@@H](O)[C@@H](O)[C@H](O)[C@H](CO)N12 | 0.49
O=C1c2cccnc2S[C@H]2[C@@H](O)[C@@H](O)[C@H](O)[C@H](CO)N12 | 31.4
O=C1CCS[C@@H]2[C@@H](O)[C@@H](O)[C@H](O)[C@@H](CO)N12 | 1.41
O=C1c2cccnc2S[C@@H]2[C@@H](O)[C@@H](O)[C@H](O)[C@@H](CO)N12 | 53.8
O=C1CCS[C@@H]2[C@@H](O)[C@@H](O)[C@H](O)[C@H](CO)N12 | 6.02
O=C1c2ccccc2S[C@@H]2[C@@H](O)[C@@H](O)[C@H](O)[C@H](CO)N12 | 1.32
O=C1c2cccnc2S[C@@H]2[C@@H](O)[C@@H](O)[C@H](O)[C@H](CO)N12 | 26.8
O=C1c2ccccc2S[C@@H]2[C@@H](O)[C@@H](O)[C@H](O)[C@@H](CO)N12 | 19.7
